From ChEMBL document CHEMBL4765292, “Flexible diaminodihydrotriazine inhibitors of Plasmodium falciparum dihydrofolate reductase: Binding strengths, modes of binding and their antimalarial activities” (Eur J Med Chem, 2020)

Columns and labels:
Plasmodium falciparum [1] = assay: Antimalarial activity against Plasmodium falciparum CsI-2 harboring DHFR C59R/S108N/I164L mutant infected in human erythrocytes assessed as reduction in [3H]-hypoxanthine incorporation pretreated for 20 hrs followed by [3H]-hypoxanthine addition measured after 20 hrs by radioactivity method; type: functional, organism-based; settings: CsI-2, Erythrocyte
[2] = Inhibition of Plasmodium falciparum DHFR using DHF as substrate by spectrophotometric analysis
[3] = test system: DHFR (human against Plasmodium falciparum DHFR); assay: Selectivity index, ratio of Ki for human DHFR expressed in Escherichia coli BL21 to Ki for Plasmodium falciparum DHFR expressed in Escherichia coli BL21; type: toxicity; settings: read-out: Ratio Ki
[4] = test system: DHFR (human against Plasmodium falciparum DHFR N51I/C59R/S108N/I164L mutant); assay: Selectivity index, ratio of Ki for human DHFR expressed in Escherichia coli BL21 to Ki for Plasmodium falciparum DHFR N51I/C59R/S108N/I164L mutant expressed in Escherichia coli BL21; type: toxicity; settings: read-out: Ratio Ki
[5] = Inhibition of Plasmodium falciparum DHFR N51I/C59R/S108N mutant expressed in Escherichia coli BL21 using DHF as substrate by spectrophotometric analysis
[6] = Therapeutic index, ratio of IC50 for African green monkey Vero cells to IC50 for Plasmodium falciparum K1CB1 harboring DHFR […] mutant; type: toxicity; settings: read-out: Ratio IC50
Plasmodium falciparum [7] = assay: Antimalarial activity against Plasmodium falciparum K1CB1 harboring DHFR […] mutant infected in human erythrocytes assessed as reduction in [3H]-hypoxanthine incorporation pretreated for 20 hrs followed by [3H]-hypoxanthine addition measured after 20 hrs by radioactivity method; type: functional, organism-based; settings: K1CB1, Erythrocyte
[8] = Inhibition of Plasmodium falciparum DHFR C59R/S108N/I164L mutant expressed in Escherichia coli BL21 using DHF as substrate by spectrophotometric analysis
[9] = Inhibition of Plasmodium falciparum DHFR […] mutant expressed in Escherichia coli BL21 using DHF as substrate by spectrophotometric analysis
[10] = Inhibition of Plasmodium falciparum DHFR N51I/C59R/S108N/I164L mutant expressed in Escherichia coli BL21 using DHF as substrate by spectrophotometric analysis
[11] = test system: DHFR (human against Plasmodium falciparum DHFR double mutant); assay: Selectivity index, ratio of Ki for human DHFR expressed in Escherichia coli BL21 to Ki for Plasmodium falciparum DHFR double mutant expressed in Escherichia coli BL21; type: toxicity; settings: read-out: Ratio Ki
Plasmodium falciparum [12] = assay: Antimalarial activity against Plasmodium falciparum TM4/8.2 infected in human erythrocytes assessed as reduction in [3H]-hypoxanthine incorporation pretreated for 20 hrs followed by [3H]-hypoxanthine addition measured after 20 hrs by radioactivity method; type: functional, organism-based
Plasmodium falciparum [13] = assay: Antimalarial activity against Plasmodium falciparum V1/S harboring DHFR N51I/C59R/S108N/I164L mutant infected in human erythrocytes assessed as reduction in [3H]-hypoxanthine incorporation pretreated for 20 hrs followed by [3H]-hypoxanthine addition measured after 20 hrs by radioactivity method; type: functional, organism-based; settings: Erythrocyte
Plasmodium falciparum [14] = assay: Antimalarial activity against Plasmodium falciparum W2 harboring DHFR N51I/C59R/S108N mutant infected in human erythrocytes assessed as reduction in [3H]-hypoxanthine incorporation pretreated for 20 hrs followed by [3H]-hypoxanthine addition measured after 20 hrs by radioactivity method; type: functional, organism-based; settings: W2, Erythrocyte
Plasmodium falciparum [15] = assay: Antimalarial activity against Plasmodium falciparum T9/94 RC17 harboring DHFR A16V/S108T mutant infected in human erythrocytes assessed as reduction in [3H]-hypoxanthine incorporation pretreated for 20 hrs followed by [3H]-hypoxanthine addition measured after 20 hrs by radioactivity method; type: functional, organism-based; settings: T9/94 RC17, Erythrocyte
[16] = Therapeutic index, ratio of IC50 for African green monkey Vero cells to IC50 for Plasmodium falciparum V1/S harboring DHFR N51I/C59R/S108N/I164L mutant; type: toxicity; settings: read-out: Ratio IC50
[17] = Therapeutic index, ratio of IC50 for African green monkey Vero cells to IC50 for Plasmodium falciparum TM4/8.2; type: toxicity; settings: against Plasmodium falciparum TM4/8.2, read-out: Ratio IC50
Vero = assay: Cytotoxicity against African green monkey Vero cells assessed as reduction in cell viability incubated for 72 hrs by SRB assay; type: cell-based; settings: Chlorocebus sabaeus
[18] = Inhibition of Plasmodium falciparum DHFR expressed in Escherichia coli BL21 using DHF as substrate by spectrophotometric analysis
[19] = Inhibition of Plasmodium falciparum DHFR A16V/S108T mutant expressed in Escherichia coli BL21 using DHF as substrate by spectrophotometric analysis

Compound | IC50 (Plasmodium falciparum [1]) [nM] | Ki [2] [nM] | selectivity ratio [3] | selectivity ratio [4] | Ki [5] [nM] | selectivity ratio [6] | IC50 (Plasmodium falciparum [7]) [nM] | Ki [8] [nM] | Ki [9] [nM] | Ki [10] [nM] | selectivity ratio [11] | IC50 (Plasmodium falciparum [12]) [nM] | IC50 (Plasmodium falciparum [13]) [nM] | IC50 (Plasmodium falciparum [14]) [nM] | IC50 (Plasmodium falciparum [15]) [nM] | selectivity ratio [16] | selectivity ratio [17] | IC50 (Vero) [nM] | Ki [18] [nM] | Ki [19] [nM]
NC1=NC(c2ccccc2)N(OCCCOc2cc(Cl)c(Cl)cc2Cl)C(N)=N1 (stereo unspecified) | 340 | 0.6 | 242 | 207 | 1.6 | 570 | 44 | 0.3 | 1.9 | 0.7 | 76 | 5.1 | 480 | 60 | 3.2 | 52 | 4920 | 25100 |  | 
CC1(C)NC(N)=NC(=N)N1OCCCSc1ccccc1 | 39 |  | 58 | 58 | 0.3 | 13300 | 4.8 | 0.4 | 0.8 |  | 36 | 0.52 | 64 | 9.9 | 0.58 | 997 | 123000 | 63800 | 0.5 | 1
CC1N=C(N)N=C(N)N1OCCCOc1cc(Cl)c(Cl)cc1Cl (stereo unspecified) | 48 | 0.3 | 79 | 40 | 0.4 | 2420 | 19 | 0.5 | 0.5 | 0.6 | 47 | 2.3 | 300 | 35 | 0.32 | 153 | 20000 | 46000 |  | 
CC1(C)N=C(N)N=C(N)N1OCCCOc1ccccc1 | 32 |  | 52 | 19 | 0.8 | 6170 | 5.4 | 1.4 | 1 | 1.9 | 36 | 0.37 | 53 | 5.9 | 0.59 | 628 | 90000 | 33300 | 0.7 | 1.5
CC1(C)N=C(N)N=C(N)N1OCCCSc1ccc(Cl)cc1 | 37 |  | 40 | 30 | 0.7 | 2970 | 6.1 | 0.9 | 0.9 | 0.8 | 26 | 0.6 | 260 | 5.4 | 1.8 | 70 | 30200 | 18100 | 0.6 | 3.1
CC1(C)N=C(N)N=C(N)N1OCCCSc1ccccc1Cl | 4.4 |  | 35 | 21 | 0.7 | 4060 | 3.6 | 0.9 | 1.1 | 1 | 19 | 0.48 | 44 | 3.3 | 0.73 | 332 | 30400 | 14600 | 0.6 | 1.9
CC1(C)N=C(N)N=C(N)N1OCCCOc1cc(Cl)c(Cl)cc1Cl | 3.8 | 0.5 | 29 | 8 | 1.1 | > 435 | 2.3 | 0.4 | 0.6 | 1.9 | 24 | 0.57 | 18 | 4.2 | 0.34 | > 56 | > 1750 | > 1000 |  | 
CC1(C)N=C(N)N=C(N)N1OCCCOc1cccc(Cl)c1Cl | 3.9 |  | 39 | 21 | 0.7 | 5110 | 1.9 | 1.4 | 1 | 1.1 | 24 | 0.35 | 5.2 | 0.82 | 0.21 | 1870 | 27700 | 9710 | 0.6 | 1.3
CC1(C)N=C(N)N=C(N)N1OCCCCc1ccccc1 | 46 |  | 139 | 11 | 0.7 | 874 | 31 | 2.2 | 0.7 | 3.7 | 60 | 33 | 590 | 44 | 3.7 | 46 | 821 | 27100 | 0.3 | 2
CC1(C)N=C(N)N=C(N)N1OCCCNc1ccc(Cl)c(Cl)c1 | 390 |  | 40 | 9 | 0.9 | > 11100 | 45 | 1.4 | 0.8 | 5.1 | 61 | 4.5 | 740 | 58 | 17 | > 68 | > 11100 | > 50000 | 1.2 | 3.7
